Test results published in patent US20230158157A1, “POTENT AND SELECTIVE DEGRADERS OF ALK” (DANA-FARBER CANCER INSTITUTE, INC., priority 2020, published 2023).
Read-outs that look alike come from different tables or passages of the source.

Assays:
[1] = tested on: H3122 cells; test: CTG; type: cell-based; settings: read-out: CTG IC50
[2] = target: T1, EML4-ALK (Homo sapiens, UniProt Q9UM73); test: EML4-ALK HiBit degradation assay in CRISPR-tagged H3122 cells (Nano-Glo HiBit Lytic Detection); type: cell-based
T1 construct: endogenous in cells; host or cells: H3122 (NSCLC), single-cell clone after CRISPR knock-in of HiBit; the other entry of the earlier key: EML4 (Q9HC35, Echinoderm microtubule-associated protein-like 4)
Method: (§1) NSCLC cell line H3122 was subjected to CRISPR to express EML4-ALK with HiBit-tag on its c-terminal. Single-cell clone was selected and expanded for the following assays that monitor endogenous EML4-ALK level in high throughput manner. Cells were seeded in 384-well white Tissue-culture plates at 3000 cells/well for 8 hours. […] HiBit signal was assessed using Nano-Glo® HiBit Lytic Detection System (Promega™). Degrader-treated was normalized by DMSO-treated controls and DC50 and Dmax were generated by GraphPad Prism® 8.0.
as §1, with “its c-terminus. A single-cell” for “its c-terminal. Single-cell”, “Degrader-treated cells were” for “Degrader-treated was”
as §1, with “its C-terminus. A single-cell” for “its c-terminal. Single-cell”, “Degrader-treated cells were” for “Degrader-treated was”

[3] = Homo sapiens, NCI-H3122, Table 1
[4] = NCI-H3122, Table 1, first Dmax column, H3122 EML4-ALK-HiBit, 16 hours, read-out: Degradation Dmax
[5] = NCI-H3122, Table 1, second Dmax column, H3122 EML4-ALK-HiBit, 16 hours, read-out: Degradation Dmax
[6] = NCI-H3122, Table 1, average Dmax, read-out: Degradation Avg. Dmax
[7] = Table 1, first DC50 column, H3122 EML4-ALK-HiBit, 16 hours, read-out: Degradation DC50
[8] = Table 1, second DC50 column, H3122 EML4-ALK-HiBit, 16 hours, read-out: Degradation DC50
[9] = Table 1, average DC50, read-out: Degradation Avg. DC50

T1 sequence (Q9UM73 with tags, fused parts or gaps): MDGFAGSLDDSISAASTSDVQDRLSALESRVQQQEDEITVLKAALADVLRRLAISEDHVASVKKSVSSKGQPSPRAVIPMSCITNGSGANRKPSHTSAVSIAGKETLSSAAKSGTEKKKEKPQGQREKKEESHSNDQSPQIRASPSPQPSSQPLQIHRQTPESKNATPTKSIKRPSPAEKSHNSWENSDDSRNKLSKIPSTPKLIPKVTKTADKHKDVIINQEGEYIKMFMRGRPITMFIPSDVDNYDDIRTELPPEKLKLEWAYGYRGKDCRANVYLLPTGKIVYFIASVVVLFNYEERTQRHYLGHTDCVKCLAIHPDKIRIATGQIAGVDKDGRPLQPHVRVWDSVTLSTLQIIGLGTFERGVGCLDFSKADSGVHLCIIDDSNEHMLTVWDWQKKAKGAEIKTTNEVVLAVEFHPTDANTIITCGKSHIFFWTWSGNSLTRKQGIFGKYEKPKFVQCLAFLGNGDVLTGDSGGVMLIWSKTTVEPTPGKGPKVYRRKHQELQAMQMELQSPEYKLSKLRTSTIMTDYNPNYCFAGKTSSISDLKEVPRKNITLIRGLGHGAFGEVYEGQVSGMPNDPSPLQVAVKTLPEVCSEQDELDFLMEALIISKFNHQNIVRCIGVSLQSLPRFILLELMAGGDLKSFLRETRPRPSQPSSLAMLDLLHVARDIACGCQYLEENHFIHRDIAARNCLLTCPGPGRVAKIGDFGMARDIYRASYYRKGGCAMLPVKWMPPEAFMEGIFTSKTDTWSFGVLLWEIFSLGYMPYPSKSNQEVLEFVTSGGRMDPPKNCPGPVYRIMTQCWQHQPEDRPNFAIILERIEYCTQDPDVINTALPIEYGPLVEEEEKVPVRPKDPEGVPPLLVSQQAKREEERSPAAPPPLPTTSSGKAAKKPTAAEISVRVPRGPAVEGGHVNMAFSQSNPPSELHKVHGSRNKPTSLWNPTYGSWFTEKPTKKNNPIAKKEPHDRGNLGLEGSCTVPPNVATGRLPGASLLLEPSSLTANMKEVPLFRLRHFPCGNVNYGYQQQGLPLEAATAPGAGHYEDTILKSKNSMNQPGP

CN[C@@H](C)C(=O)N[C@H](C(=O)N1Cc2cc(OCCCCCNCCc3cc(OC)c(Nc4ncc(Cl)c(Nc5ccccc5S(=O)(=O)C(C)C)n4)cc3C)ccc2C[C@H]1C(=O)N[C@H]1CCCc2ccccc21)C(C)(C)C [Compound 39]
IC50 ([1]; Homo sapiens, NCI-H3122, Table 1, unheaded column beside IC50 (nM)): 414 nM
IC50 [1, 3]: 1480 nM
Dmax [2, 4]: 79.1%
Dmax [2, 5]: 99.3%
Dmax [2, 6]: 89.2%
DC50 [2, 7]: 402 nM
DC50 [2, 8]: 184 nM
DC50 [2, 9]: 293 nM

COc1cc(CCN(C)C(=O)CCCCCNc2cccc3c2C(=O)N(C2CCC(=O)NC2=O)C3=O)c(C)cc1Nc1ncc(Cl)c(Nc2ccccc2S(=O)(=O)C(C)C)n1 (stereo not drawn) [compound 2, N-(4-((5-chloro-4-((2-(isopropylsulfonyl)phenyl)amino)pyrimidin-2-yl)amino)-5-methoxy-2-methylphenethyl)-6-((2-(2,6-dioxopiperidin-3-yl)-1,3-dioxoisoindolin-4-yl)amino)-N-methylhexanamide]
IC50 [1, 3]: 76.9 nM
Dmax [2, 4]: 24.1%
Dmax [2, 6]: 31.4%
DC50 [2, 7]: 67 nM
DC50 [2, 8]: 46 nM
DC50 [2, 9]: 57 nM

COc1cc(CCN(C)C(=O)CCCNc2cccc3c2C(=O)N(C2CCC(=O)NC2=O)C3=O)c(C)cc1Nc1ncc(Cl)c(Nc2ccccc2S(=O)(=O)C(C)C)n1 (stereo not drawn) [compound 1]
IC50 [1, 3]: 44.8 nM
Dmax [2, 4]: 25.8%
Dmax [2, 6]: 23.8%
DC50 [2, 7]: 32 nM
DC50 [2, 9]: 32 nM

COc1cc(CCN(C)C(=O)CCCCCCCCC(=O)N[C@H](C(=O)N2C[C@H](O)C[C@H]2C(=O)N[C@@H](C)c2ccc(-c3scnc3C)cc2)C(C)(C)C)c(C)cc1Nc1ncc(Cl)c(Nc2ccccc2S(=O)(=O)C(C)C)n1 [compound 42, N^1-(4-((5-chloro-4-((2-(isopropylsulfonyl)phenyl)amino)pyrimidin-2-yl)amino)-5-methoxy-2-methylphenethyl)-N^10-((S)-1-((2S,4R)-4-hydroxy-2-(((S)-1-(4-(4-methylthiazol-5-yl)phenyl)ethyl)carbamoyl)pyrrolidin-1-yl)-3,3-dimethyl-1-oxobutan-2-yl)-N^1-methyldecanediamide]
IC50 [1, 3]: 1310 nM
Dmax [2, 4]: 47.3%
Dmax [2, 6]: 47.3%
DC50 [2, 7]: 777 nM
DC50 [2, 9]: 777 nM

COc1cc(CCNCCCCCOc2cc(-c3scnc3C)ccc2[C@H](C)NC(=O)[C@@H]2C[C@@H](O)CN2C(=O)[C@@H](NC(C)=O)C(C)(C)C)c(C)cc1Nc1ncc(Cl)c(Nc2ccccc2S(=O)(=O)C(C)C)n1 [Compound 53]
IC50 [1, 3]: 121 nM
Dmax [2, 4]: 64.9%
Dmax [2, 5]: 68.2%
Dmax [2, 6]: 66.5%
DC50 [2, 7]: 113 nM
DC50 [2, 8]: 72 nM
DC50 [2, 9]: 93 nM

COc1cc(CCNCCCCCC(=O)N[C@H](C(=O)N2C[C@H](O)C[C@H]2C(=O)N[C@@H](C)c2ccc(-c3scnc3C)cc2)C(C)(C)C)c(C)cc1Nc1ncc(Cl)c(Nc2ccccc2S(=O)(=O)C(C)C)n1 [Compound 44]
IC50 [1, 3]: 252 nM
Dmax [2, 4]: 53%
Dmax [2, 6]: 53%
DC50 [2, 7]: 1250 nM
DC50 [2, 9]: 1250 nM

CC[C@@H](NC(=O)C1CC(NC(=O)CCCCCCC(=O)N(C)CCc2cc(OC)c(Nc3ncc(Cl)c(Nc4ccccc4S(=O)(=O)C(C)C)n3)cc2C)CN1C(=O)[C@@H](NC(=O)[C@H](C)NC)C(C)(C)C)c1ccccc1 (stereo partly drawn) [Compound 55]
IC50 [1, 3]: 296 nM
Dmax [2, 4]: 74.6%
Dmax [2, 5]: 102%
Dmax [2, 6]: 88.2%
DC50 [2, 7]: 624 nM
DC50 [2, 8]: 360 nM
DC50 [2, 9]: 492 nM

COc1cc(CCNCCCCCSC(C)(C)[C@H](NC(C)=O)C(=O)N2C[C@H](O)C[C@H]2C(=O)N[C@@H](C)c2ccc(-c3scnc3C)cc2)c(C)cc1Nc1ncc(Cl)c(Nc2ccccc2S(=O)(=O)C(C)C)n1 [Compound 48]
IC50 [1, 3]: 388 nM
Dmax [2, 4]: 77.2%
Dmax [2, 5]: 108%
Dmax [2, 6]: 92.8%
DC50 [2, 7]: 961 nM
DC50 [2, 8]: 611 nM
DC50 [2, 9]: 786 nM

COc1cc(CCN(C)C(=O)CCCCCC#Cc2cccc3c2C(=O)N(C2CCC(=O)NC2=O)C3=O)c(C)cc1Nc1ncc(Cl)c(Nc2ccccc2S(=O)(=O)C(C)C)n1 (stereo not drawn) [compound 10, N-(4-((5-chloro-4-((2-(isopropylsulfonyl)phenyl)amino)pyrimidin-2-yl)amino)-5-methoxy-2-methylphenethyl)-8-(2-(2,6-dioxopiperidin-3-yl)-1,3-dioxoisoindolin-4-yl)-N-methyloct-7-ynamide]
IC50 [1, 3]: 125 nM
Dmax [2, 4]: 43.4%
Dmax [2, 6]: 43.4%
DC50 [2, 7]: 203 nM
DC50 [2, 9]: 203 nM

COc1cc(CCN(C)C(=O)CCOCCOCCOCC#Cc2cccc3c2C(=O)N(C2CCC(=O)NC2=O)C3=O)c(C)cc1Nc1ncc(Cl)c(Nc2ccccc2S(=O)(=O)C(C)C)n1 (stereo not drawn) [compound 11, N-(4-((5-chloro-4-((2-(isopropylsulfonyl)phenyl)amino)pyrimidin-2-yl)amino)-5-methoxy-2-methylphenethyl)-3-(2-(2-((3-(2-(2,6-dioxopiperidin-3-yl)-1,3-dioxoisoindolin-4-yl)prop-2-yn-1-yl)oxy)ethoxy)ethoxy)-N-methylpropanamide]
IC50 [1, 3]: 219 nM
Dmax [2, 4]: 53.3%
Dmax [2, 6]: 53.3%
DC50 [2, 7]: 502 nM
DC50 [2, 9]: 302 nM

COc1cc(CCN(C)C(=O)CCOCCOCCNC(=O)COc2cccc3c2C(=O)N(C2CCC(=O)NC2=O)C3=O)c(C)cc1Nc1ncc(Cl)c(Nc2ccccc2S(=O)(=O)C(C)C)n1 (stereo not drawn) [compound 8, N-(4-((5-chloro-4-((2-(isopropylsulfonyl)phenyl)amino)pyrimidin-2-yl)amino)-5-methoxy-2-methylphenethyl)-3-(2-(2-(2-((2-(2,6-dioxopiperidin-3-yl)-1,3-dioxoisoindolin-4-yl)oxy)acetamido)ethoxy)ethoxy)-N-methylpropanamide]
IC50 [1, 3]: 75 nM
Dmax [2, 4]: 44.3%
Dmax [2, 6]: 44.8%
DC50 [2, 7]: 171 nM
DC50 [2, 9]: 171 nM

COc1cc(CCN(C)C(=O)CCOCCC(=O)N[C@H](C(=O)N2C[C@H](O)C[C@H]2C(=O)N[C@@H](C)c2ccc(-c3scnc3C)cc2)C(C)(C)C)c(C)cc1Nc1ncc(Cl)c(Nc2ccccc2P(C)(C)=O)n1 [compound 71, (2S,4R)-1-((S)-2-(3-(3-((4-((5-chloro-4-((2-(dimethylphosphoryl)phenyl)amino)pyrimidin-2-yl)amino)-5-methoxy-2-methylphenethyl)(methyl)amino)-3-oxopropoxy)propanamido)-3,3-dimethylbutanoyl)-4-hydroxy-N-((S)-1-(4-(4-methylthiazol-5-yl)phenyl)ethyl)pyrrolidine-2-carboxamide]
IC50 ([1]; Homo sapiens, NCI-H3122, Table 2): 222 nM
Dmax ([2]; NCI-H3122, Table 2, first Dmax column, H3122 EML4-ALK-HiBit, 16 hours, read-out: Degradation Dmax): 50.9%
Dmax ([2]; NCI-H3122, Table 2, second Dmax column, H3122 EML4-ALK-HiBit, 16 hours, read-out: Degradation Dmax): 43.7%
Dmax ([2]; NCI-H3122, Table 2, average Dmax, read-out: Degradation Avg. Dmax): 47.3%
DC50 ([2]; Table 2, first DC50 column, H3122 EML4-ALK-HiBit, 16 hours, read-out: Degradation DC50): 543 nM
DC50 ([2]; Table 2, second DC50 column, H3122 EML4-ALK-HiBit, 16 hours, read-out: Degradation DC50): 150 nM
DC50 ([2]; Table 2, average DC50, read-out: Degradation Avg. DC50): 350 nM

CC[C@@H](NC(=O)[C@@H]1C[C@H](NC(=O)CCCCCCCC(=O)N(C)CCc2cc(OC)c(Nc3ncc(Cl)c(Nc4ccccc4S(=O)(=O)C(C)C)n3)cc2C)CN1C(=O)[C@@H](NC(=O)[C@H](C)NC)C(C)(C)C)c1ccccc1 [Compound 56]
IC50 ([1]; Table 1): 360 nM
DC50 [2, 7]: 163 nM
DC50 [2, 8]: 226 nM
DC50 [2, 9]: 195 nM

COc1cc(CCNCCCCCCCC(=O)N[C@H](C(=O)N2C[C@H](O)C[C@H]2C(=O)N[C@@H](C)c2ccc(-c3scnc3C)cc2)C(C)(C)C)c(C)cc1Nc1ncc(Cl)c(Nc2ccccc2S(=O)(=O)C(C)C)n1 [Compound 45]
IC50 [1, 3]: 106 nM
Dmax [2, 4]: 51%
Dmax [2, 6]: 51%
DC50 [2, 7]: 390 nM
DC50 [2, 9]: 390 nM

COc1cc(CCN(C)C(=O)CCCCCCCCNc2cccc3c2C(=O)N(C2CCC(=O)NC2=O)C3=O)c(C)cc1Nc1ncc(Cl)c(Nc2ccccc2S(=O)(=O)C(C)C)n1 (stereo not drawn) [compound 3, N-(4-((5-chloro-4-((2-(isopropylsulfonyl)phenyl)amino)pyrimidin-2-yl)amino)-5-methoxy-2-methylphenethyl)-9-((2-(2,6-dioxopiperidin-3-yl)-1,3-dioxoisoindolin-4-yl)amino)-N-methylnonanamide]
IC50 [1, 3]: 136 nM
Dmax [2, 5]: 38.4%
DC50 [2, 8]: 346 nM
